Like-named read-outs stand apart in the source and are kept apart here. Starred links: 1 amine or outer side, 2 acyl side, 3 side chain; linkers in the order of their positions; H or OH if unused. Non-standard residues stand in square brackets, D forms with d. Residues, ends and D or L forms follow the SMILES beside them. Groups on a side chain read outwards from the residue. *: point of attachment. C20 diacid = O=C(O)CCCCCCCCCCCCCCCCCCC(=O)*; Pro(cis-4-F) = O=C(O)[C@@H]1C[C@H](F)CN1; γGlu = O=C(O)[C@H](CCC(=O)[*:2])N[*:1]; Nle = CCCC[C@H](N)C(=O)O; AEEA = NCCOCCOCC(=O)O

Assay [1] concerns the target T1, hCRHR1 (Homo sapiens, UniProt P34998).
T1 sequence (P34998 24-415): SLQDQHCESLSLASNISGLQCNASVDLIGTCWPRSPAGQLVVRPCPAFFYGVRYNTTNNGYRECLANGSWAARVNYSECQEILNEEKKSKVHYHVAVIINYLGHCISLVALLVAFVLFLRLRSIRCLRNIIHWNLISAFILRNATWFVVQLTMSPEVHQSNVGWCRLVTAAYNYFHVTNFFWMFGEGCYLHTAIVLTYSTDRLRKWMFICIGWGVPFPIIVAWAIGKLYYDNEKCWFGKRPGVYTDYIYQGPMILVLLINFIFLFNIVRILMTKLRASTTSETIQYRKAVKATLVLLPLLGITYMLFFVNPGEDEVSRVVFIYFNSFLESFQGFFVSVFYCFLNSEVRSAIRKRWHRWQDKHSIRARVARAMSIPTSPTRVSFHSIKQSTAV
Description: HTRF cAMP assay, determination of hCRHR1 potency (peptide libraries 5 conc., purified peptides 11 conc.). Type of assay: cell-based. A digest of the protocol: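 Cellular cAMP was read by time-resolved FRET between d2-labelled cAMP and cryptate anti-cAMP antibody. The cells were freshly thawed suspension CHO-K1 cells stably expressing human CRHR1.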
For orientation: TR-FRET usually uses a lanthanide donor and a delayed reading to cut background.

Assay [2] has as its target T2, hCRHR2 (Homo sapiens, UniProt Q13324).
T2 sequence (Q13324 1-411): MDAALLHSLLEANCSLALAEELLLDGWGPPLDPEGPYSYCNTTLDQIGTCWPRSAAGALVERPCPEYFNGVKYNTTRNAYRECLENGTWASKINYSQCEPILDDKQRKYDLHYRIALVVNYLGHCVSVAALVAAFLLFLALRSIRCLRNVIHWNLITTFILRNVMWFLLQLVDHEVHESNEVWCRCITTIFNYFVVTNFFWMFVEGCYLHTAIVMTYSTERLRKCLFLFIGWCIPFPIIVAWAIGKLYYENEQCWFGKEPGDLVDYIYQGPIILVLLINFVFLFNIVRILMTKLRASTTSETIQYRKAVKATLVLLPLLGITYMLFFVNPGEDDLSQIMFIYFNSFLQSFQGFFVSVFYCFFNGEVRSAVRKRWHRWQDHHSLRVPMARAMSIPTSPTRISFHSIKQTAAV
In words: HTRF cAMP assay, determination of hCRHR2 potency (peptide libraries 5 conc., purified peptides 11 conc.). Type of assay: cell-based. A digest of the protocol: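 EC50 derived by variable-slope sigmoid regression of FRET-based cAMP data; cellular cAMP displaced d2-labelled tracer from cryptate anti-cAMP antibody. Stable human CRHR2 CHO-K1 suspension cells, revived from frozen stocks just before the run.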

[3] abbreviates: Table 3, matched molecular pairs X^38 L vs Nle, peptide library of Example 4, read-out: hCRHR1 pEC50 (converted).
[4] abbreviates: Table 3, matched molecular pairs X^38 L vs Nle, peptide library of Example 4, read-out: hCRHR2 pEC50 (converted).
[5] abbreviates: library peptides, matched molecular pairs L vs Nle in position X^38, read-out: Potency hCRHR1 pEC50 (converted).
Setting [6] is: library peptides, matched molecular pairs L vs Nle in position X^38, read-out: Potency hCRHR2 pEC50 (converted).

For `CCCC[C@H](NC(=O)[C@@H](NC(=O)[C@H](CCC(=O)O)NC(=O)[C@H](C)NC(=O)[C@H](CC(N)=O)NC(=O)[C@@H](NC(=O)[C@H](CCCCNC(=O)COCCOCCNC(=O)COCCOCCNC(=O)CC[C@H](NC(=O)CC[C@H](NC(=O)CCCCCCCCCCCCCCCCCCC(=O)O)C(=O)O)C(=O)O)NC(=O)[C@H](C)NC(=O)[C@H](CCC(N)=O)NC(=O)[C@H](CCC(=O)O)NC(=O)[C@H](CCCNC(=N)N)NC(=O)[C@H](C)NC(=O)[C@H](C)NC(=O)[C@H](CCC(N)=O)NC(=O)[C@H](C)NC(=O)[C@H](CCCNC(=N)N)NC(=O)[C@H](C)NC(=O)[C@H](CCC(N)=O)NC(=O)[C@H](CCC(=O)O)NC(=O)[C@H](CC(C)C)NC(=O)[C@H](CC(C)C)NC(=O)[C@@H](NC(=O)[C@H](CCC(N)=O)NC(=O)[C@H](CC(C)C)NC(=O)[C@H](CC(C)C)NC(=O)CNC(=O)[C@@H](NC(=O)[C@@H]1CCCN1C(=O)[C@@H](NC(=O)[C@H](CC(=O)O)NC(=O)[C@H](CC(C)C)NC(=O)[C@H](CO)NC(=O)[C@H](CC(C)C)NC(=O)[C@@H](NC(=O)[C@@H](N)[C@@H](C)CC)C(C)C)C(C)C)[C@@H](C)CC)[C@@H](C)CC)[C@@H](C)O)[C@@H](C)CC)C(=O)N[C@@H](C)C(=O)N[C@@H](CCC(=O)O)C(=O)N[C@H](C(N)=O)[C@@H](C)CC` [SEQ ID NO: 44] (H-IVLSLDVPIGLLQILLEQARAQAAREQAK([AEEA-AEEA-γGlu-γGlu-C20 diacid])TNAEI[Nle]AEI-NH2), the EC50 was 1.26 µM in assay [1] (setting [3]) and 0.1 nM in assay [2] (setting [4]).

For `CCCC[C@H](NC(=O)[C@@H](NC(=O)[C@H](CCC(=O)O)NC(=O)[C@H](C)NC(=O)[C@H](CC(N)=O)NC(=O)[C@@H](NC(=O)[C@H](CCCCNC(=O)COCCOCCNC(=O)COCCOCCNC(=O)CC[C@H](NC(=O)CC[C@H](NC(=O)CCCCCCCCCCCCCCCCCCC(=O)O)C(=O)O)C(=O)O)NC(=O)[C@H](C)NC(=O)[C@H](CCC(N)=O)NC(=O)[C@H](CCC(N)=O)NC(=O)[C@H](CCCNC(=N)N)NC(=O)[C@H](C)NC(=O)[C@H](C)NC(=O)[C@H](CCCNC(=N)N)NC(=O)[C@H](C)NC(=O)[C@H](CCCNC(=N)N)NC(=O)[C@H](C)NC(=O)[C@H](CCC(N)=O)NC(=O)[C@H](CCC(=O)O)NC(=O)[C@H](CC(C)C)NC(=O)[C@H](CC(C)C)NC(=O)[C@@H](NC(=O)[C@H](CCC(N)=O)NC(=O)[C@H](CC(C)C)NC(=O)[C@H](CC(C)C)NC(=O)CNC(=O)[C@@H](NC(=O)[C@@H]1CCCN1C(=O)[C@@H](NC(=O)[C@H](CC(=O)O)NC(=O)[C@H](CC(C)C)NC(=O)[C@H](CO)NC(=O)[C@H](CC(C)C)NC(=O)[C@@H](NC(=O)[C@@H](N)[C@@H](C)CC)C(C)C)C(C)C)[C@@H](C)CC)[C@@H](C)CC)[C@@H](C)O)[C@@H](C)CC)C(=O)N[C@@H](C)C(=O)N[C@@H](CCC(=O)O)C(=O)N[C@H](C(N)=O)[C@@H](C)CC` [SEQ ID NO: 28] (H-IVLSLDVPIGLLQILLEQARARAARQQAK([AEEA-AEEA-γGlu-γGlu-C20 diacid])TNAEI[Nle]AEI-NH2), the EC50 in assay [1] (setting [3]) was 1.26 µM; in assay [2] (setting [4]), 0.158 nM.

Take `CC[C@H](C)[C@H](N)C(=O)N[C@H](C(=O)N[C@@H](CC(C)C)C(=O)N[C@@H](CO)C(=O)N[C@@H](CC(C)C)C(=O)N[C@@H](CC(=O)O)C(=O)N[C@H](C(=O)N1CCC[C@H]1C(=O)N[C@H](C(=O)NCC(=O)N[C@@H](CC(C)C)C(=O)N[C@@H](CC(C)C)C(=O)N[C@@H](CCC(N)=O)C(=O)N[C@H](C(=O)N[C@@H](CC(C)C)C(=O)N[C@@H](CC(C)C)C(=O)N[C@@H](CCC(=O)O)C(=O)N[C@@H](CCC(N)=O)C(=O)N[C@@H](C)C(=O)N[C@@H](CCCNC(=N)N)C(=O)N[C@@H](C)C(=O)N[C@@H](CCCNC(=N)N)C(=O)N[C@@H](CO)C(=O)N[C@@H](CCC(N)=O)C(=O)N[C@@H](CCCNC(=N)N)C(=O)N[C@@H](CCC(=O)O)C(=O)N[C@@H](CCC(=O)O)C(=O)N[C@@H](C)C(=O)N[C@@H](CCCCNC(=O)COCCOCCNC(=O)COCCOCCNC(=O)CC[C@H](NC(=O)CC[C@H](NC(=O)CCCCCCCCCCCCCCCCCCC(=O)O)C(=O)O)C(=O)O)C(=O)N[C@H](C(=O)N[C@@H](CC(N)=O)C(=O)N[C@@H](C)C(=O)N[C@@H](CCC(=O)O)C(=O)N[C@H](C(=O)N[C@@H](CC(C)C)C(=O)N[C@@H](C)C(=O)N[C@@H](CCC(=O)O)C(=O)N[C@H](C(N)=O)C(C)C)[C@@H](C)CC)[C@@H](C)O)[C@@H](C)CC)[C@@H](C)CC)C(C)C)C(C)C` [compound 70] (H-IVLSLDVPIGLLQILLEQARARSQREEAK([AEEA-AEEA-γGlu-γGlu-C20 diacid])TNAEILAEV-NH2): the EC50 is 158 µM in assay [1] (setting [5]) and 1.26 nM in assay [2] (setting [6]).

Consider `CC[C@H](C)[C@H](N)C(=O)N[C@H](C(=O)N[C@@H](CC(C)C)C(=O)N[C@@H](CO)C(=O)N[C@@H](CC(C)C)C(=O)N[C@@H](CC(=O)O)C(=O)N[C@H](C(=O)N1C[C@@H](F)C[C@H]1C(=O)N[C@H](C(=O)NCC(=O)N[C@@H](CC(C)C)C(=O)N[C@@H](CC(C)C)C(=O)N[C@@H](CCC(N)=O)C(=O)N[C@H](C(=O)N[C@@H](CC(C)C)C(=O)N[C@@H](CC(C)C)C(=O)N[C@H](C(=O)N[C@@H](CCC(N)=O)C(=O)N[C@@H](C)C(=O)N[C@@H](CCCNC(=N)N)C(=O)N[C@@H](C)C(=O)N[C@@H](CCCNC(=N)N)C(=O)N[C@@H](C)C(=O)N[C@@H](C)C(=O)N[C@@H](CCCNC(=N)N)C(=O)N[C@@H](CCC(=O)O)C(=O)N[C@@H](CCC(N)=O)C(=O)N[C@@H](C)C(=O)N[C@@H](CCCCNC(=O)COCCOCCNC(=O)COCCOCCNC(=O)CC[C@H](NC(=O)CC[C@H](NC(=O)CCCCCCCCCCCCCCCCCCC(=O)O)C(=O)O)C(=O)O)C(=O)N[C@H](C(=O)N[C@@H](CC(N)=O)C(=O)N[C@@H](C)C(=O)N[C@@H](CCC(=O)O)C(=O)N[C@H](C(=O)N[C@@H](CC(C)C)C(=O)N[C@@H](C)C(=O)N[C@@H](CCC(=O)O)C(=O)N[C@H](C(N)=O)C(C)C)[C@@H](C)CC)[C@@H](C)O)[C@@H](C)O)[C@@H](C)CC)[C@@H](C)CC)C(C)C)C(C)C` [compound 80] (H-IVLSLDV[Pro(cis-4-F)]IGLLQILLTQARARAAREQAK([AEEA-AEEA-γGlu-γGlu-C20 diacid])TNAEILAEV-NH2), for which the EC50 in assay [1] (setting [5]) was 25.1 µM; in assay [2] (setting [6]), 1 nM.

Regarding `CC[C@H](C)[C@H](N)C(=O)N[C@H](C(=O)N[C@@H](CC(C)C)C(=O)N[C@@H](CO)C(=O)N[C@@H](CC(C)C)C(=O)N[C@@H](CC(=O)O)C(=O)N[C@H](C(=O)N1CCC[C@H]1C(=O)N[C@H](C(=O)NCC(=O)N[C@@H](CC(C)C)C(=O)N[C@@H](CC(C)C)C(=O)N[C@@H](CCC(N)=O)C(=O)N[C@H](C(=O)N[C@@H](CC(C)C)C(=O)N[C@@H](CC(C)C)C(=O)N[C@@H](CCC(=O)O)C(=O)N[C@@H](CCC(N)=O)C(=O)N[C@@H](C)C(=O)N[C@@H](CCCNC(=N)N)C(=O)N[C@@H](C)C(=O)N[C@@H](CCCNC(=N)N)C(=O)N[C@@H](C)C(=O)N[C@@H](C)C(=O)N[C@@H](CCCNC(=N)N)C(=O)N[C@@H](CCC(=O)O)C(=O)N[C@@H](CCC(N)=O)C(=O)N[C@@H](C)C(=O)N[C@@H](CCCCNC(=O)COCCOCCNC(=O)COCCOCCNC(=O)CC[C@H](NC(=O)CC[C@H](NC(=O)CCCCCCCCCCCCCCCCCCC(=O)O)C(=O)O)C(=O)O)C(=O)N[C@H](C(=O)N[C@@H](CC(N)=O)C(=O)N[C@@H](C)C(=O)N[C@@H](CCC(=O)O)C(=O)N[C@H](C(=O)N[C@@H](CC(C)C)C(=O)N[C@@H](C)C(=O)N[C@@H](CCC(=O)O)C(=O)N[C@H](C(N)=O)[C@@H](C)CC)[C@@H](C)CC)[C@@H](C)O)[C@@H](C)CC)[C@@H](C)CC)C(C)C)C(C)C` [compound 68] (H-IVLSLDVPIGLLQILLEQARARAAREQAK([AEEA-AEEA-γGlu-γGlu-C20 diacid])TNAEILAEI-NH2), the results for the EC50 in assay [1] (setting [5]) and in assay [2] (setting [6]) were 63.1 µM and 0.251 nM, respectively.

Values taken from EP4810052A2, “HCRHR2 SELECTIVE POLYPEPTIDES” (Gubra A/S, priority 2023, dated 2026).
